Where a SMILES comes first, the peptide text is derived from it. The star is where a group is joined. Cbz = O=C(OCc1ccccc1)*; OtBu = CC(C)(C)O*; CH2F = FC*
Tests used:
H4 neuroglioma cells = assay: Proteasome-induced toxicity, Western blot; format: cell-based
Description: H4 neuroglioma cells were grown in Opti-Mem plus 10% FBS and 1% pen-strep. Cells were plated in 6-well plates and at 90% confluency treated with 10 μM proteasome inhibitor I (PSI) (EMD Chemicals, Inc. San Diego, Calif.) or 100 μM pan-caspase inhibitor (Z-VAD-FMK) (EMD Chemicals, Inc. San Diego, Calif.) separately or in combination. Twenty-four hours after treatment, the cells were harvested for subsequent Western blot analysis in the Co-IP buffer (50 mM Tris-HCl, pH 7.4, 1 M NaCl, 1% Triton-X-100, 5 mM EDTA) plus 1% SDS, PMSF, and protease and phosphatase inhibitors.
Protein concentrations of cells lysates were measured by a standard BCA assay (Pierce, Rockford, Ill.). Then, the samples were heated in Laemmli's buffer, and equal amounts of protein were loaded into 10-well 10% or 4-20% Tris-glycine gels (Novex, San Diego, Calif.). After transfer, blots were blocked with 5% nonfat dry milk in TBST ([…]) for 1 hour, and then incubated with rabbit polyclonal TDP-43 antibody (1:500; ProteinTech Group, Inc, Chicago, Ill.), rabbit polyclonal caspase-3 antibody (1:1000; Cell Signaling, Beverly, Mass.), HSP70 (1:2000; Stressgen, Ann Arbor, Mich.), GADPH (1:5000; Biodesign International, Kennebunkport, Me.), or mouse monoclonal β-actin antibody (1:5000, Sigma, Saint Louis, Miss.) overnight at 4° C. Membranes were washed three times each for 10 minutes with TBST and then incubated with anti-mouse or anti-rabbit IgG conjugated to horseradish peroxidase (1:2000; Jackson ImmunoResearch, West Grove, Pa.) for 1 hour. Membranes were then washed three times each for 10 minutes, and protein expression was visualized by ECL treatment and exposure to film.

TDP-43 = assay: Proteolytic processing of TDP-43 and caspase-3, Western blot of HeLa and H4 cells; format: cell-based
Description: For progranulin small interfering RNA (siRNA) transfections, siRNA was predesigned by QIAGEN (QIAGEN Inc, Valencia, Calif.) for GenBank Accession Number NM—001012479, and the sense sequence was 5′-r([sequence])dTdT-3′ (SEQ ID NO:5). siRNA experiments were carried out in 6-well plates. Final siRNA concentration (progranulin or a validated negative control siRNA) per well was 20 nM in Opti-Mem, with 4 μL of siLentFect transfection reagent (Bio-Rad, Hercules, Calif.) used per well. This mixture was incubated in a final volume of 500 μL for 20 minutes and then added to 40%-50% confluent HeLa and H4 cells in 6-well dishes plated the previous day for a final in-well volume of 2 mL. Seventy-two hours after transfection, cells were harvested for subsequent Western blot analysis in lysis buffer containing Co-IP buffer (50 mM Tris-HCl, pH 7.4, 1 M NaCl, 1% Triton-X-100, 5 mM EDTA) plus 1% SDS, PMSF, and both a protease and phosphatase inhibitor mixture. For caspase inhibitor treatment, the cells were transfected with progranulin siRNA for 24 hours, and then the pan-caspase inhibitor (Z-VAD-FMK) (EMD Chemicals, Inc. San Diego, Calif.) was added to cells for additional 48 hours at a final concentration of 100 μM. Cell lysates was prepared as described herein. […]
Protein concentrations of cells lysates were measured by a standard BCA assay (Pierce, Rockford, Ill.). […]

HEK293 cells = assay: Inclusion formation and distribution of GFP-TDP-43 constructs, confocal microscopy; format: cell-based; conditions: for cellular distribution: HEK293, confocal fluorescence microscopy
Description: HEK293 cells, grown on glass coverslips, were transfected with 0.3 μg of expression vector (GFP, GFP-TDP-43, GFP-TDP-43-caspase-resistant, GFP-TDP-35, GFP-TDP-25, or GFP-TDP-ΔNR1) by using Lipofectamine 2000 (Invitrogen) according to the manufacturer's instructions then subjected to immunofluorescence analysis 48 hours later. To determine if the cytoplasmic inclusion were insoluble, some cells were treated with 0.2% Triton X-100 prior to fixation, in order to remove soluble protein. To determine if the formation of inclusion was aggresome-dependent, some cells were treated with 1 μM nocodazole (Sigma) for 24 hours after 6 hours of transfection. Finally, to examine if inclusions were ubiquitinated, cells were cotransfected with 0.3 μg of a TDP-43 construct and 0.5 μg HA-ubiquitin, then subjected to immunofluorescence analysis 72 hours later.
(§1) The cultured HEK293 and differentiated M17 cells were fixed with 4% paraformaldehyde in phosphate-buffered saline (PBS) at 4° C. for 15 minutes and permeabilized with PBS-0.5% Triton X-100 for 10 minutes. After blocking with 5% BSA for 1 hour at 37° C., the cells were incubated overnight at 4° C. with mouse monoclonal HA antibody (1:1000, Roche Applied Science), rabbit polyclonal activated caspase-3 antibody (1:250, Cell Signaling), rabbit polyclonal anti-pTDP-43 (which detects phosphorylated S409/S410; 1:1000, COSMO BIO CO., LTD), mouse monoclonal Flag antibody (1:1000, Sigma), rabbit polyclonal M2085 (1:1000), or rabbit polyclonal M2079 (1:1000). After washing, cells were incubated with the Alexa 568-conjugated goat anti-mouse IgG secondary antibody (1:1000, Molecular Probes) or anti-rabbit IgG secondary antibody (1:500, Molecular Probes) at 37° C. for 2 hours. Finally, Hoechst 33258 (1 μg/mL, Invitrogen) was used to stain the nuclei. Images were obtained on a Zeiss LSM 510 META confocal microscope.

HeLa or H4 cells = assay: Immunofluorescence and confocal microscopy of TDP-43 localization; format: cell-based; conditions: 1 μM for 3 hours, in contrast to untreated cells
hnRNPA2 = target: T1, hnRNPA2 (Homo sapiens, UniProt P22626); assay: Co-immunoprecipitation with Flag-tagged hnRNPA2; format: binding; conditions: HeLa cells, probing for GFP
T1 construct: expressed in transfected cells; host or cells: HeLa cells
T1 sequence (P22626 1-341 isoform P22626-2, species assumed): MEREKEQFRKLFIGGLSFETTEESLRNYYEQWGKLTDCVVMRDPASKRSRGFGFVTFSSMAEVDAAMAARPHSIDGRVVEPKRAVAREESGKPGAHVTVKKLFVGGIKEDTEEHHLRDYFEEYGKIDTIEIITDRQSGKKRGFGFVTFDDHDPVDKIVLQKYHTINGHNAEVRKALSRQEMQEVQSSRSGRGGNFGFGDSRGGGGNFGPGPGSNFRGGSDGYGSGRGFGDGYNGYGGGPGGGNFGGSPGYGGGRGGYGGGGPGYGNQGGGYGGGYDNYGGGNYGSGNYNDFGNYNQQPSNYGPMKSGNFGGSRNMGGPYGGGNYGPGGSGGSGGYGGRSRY
Description: (§2) For co-immunoprecipitation studies, HeLa cells were transfected with 1 or 2 μg of each plasmid. Cells were harvested 48 hours later using Co-IP buffer (50 mM Tris-HCl, pH 7.4, 1 M NaCl, 1% Triton X-100, 5 mM EDTA) containing PMSF as well as protease and phosphatase inhibitors. The lysates were sonicated and centrifuged at 16,000 g for 20 minutes. The protein concentration of supernatants was determined by BCA assay (Thermo Scientific). Supernatant containing 500 μg of total protein was combined with Anti-Flag M2 agarose (Sigma) and incubated overnight at 4° C. with gentle shaking. The agarose was pelleted by centrifugation at 2,500 g for 5 minutes and washed with Co-IP buffer 6 times. Captured protein was eluted from the beads using loading buffer and resolved by SDS-PAGE for Western blot analysis.

Flag-TDP-43 = target: T2, Flag-TDP-43 (Homo sapiens, UniProt Q13148); assay: Co-immunoprecipitation with Flag-TDP-43; format: binding; conditions: HeLa cells, probing for GFP
T2 construct: the exon skipping activity in cells overexpressing full-length TDP-43 was examined; expressed in transfected cells; host or cells: HeLa cells
T2 sequence (Q13148 whole entry): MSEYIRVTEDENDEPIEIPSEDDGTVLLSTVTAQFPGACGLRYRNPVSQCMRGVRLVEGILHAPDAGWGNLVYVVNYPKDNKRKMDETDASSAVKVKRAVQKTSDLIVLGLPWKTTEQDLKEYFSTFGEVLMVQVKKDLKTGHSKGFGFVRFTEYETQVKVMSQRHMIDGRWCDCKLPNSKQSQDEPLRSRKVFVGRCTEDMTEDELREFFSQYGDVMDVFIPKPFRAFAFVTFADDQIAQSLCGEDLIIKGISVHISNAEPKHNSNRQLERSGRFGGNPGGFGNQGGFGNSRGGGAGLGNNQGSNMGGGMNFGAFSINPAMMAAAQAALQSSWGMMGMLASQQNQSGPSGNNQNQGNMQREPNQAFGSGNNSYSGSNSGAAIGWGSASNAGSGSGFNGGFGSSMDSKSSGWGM
Description: as §2

[1] = test system: TDP-43 exon 9 skipping activity; assay: CFTR mini-gene splicing assay; format: cell-based; conditions: for CFTR exon 9 exclusion (endogenous TDP-43 background): HeLa cells cotransfected with CFTR minigene, RT-PCR, compared to GFP; for exon skipping activity in cells overexpressing Flag-TDP-43: cotransfected with CFTR mini-gene and Flag-TDP-43
Description: The CFTR mini-gene splicing assay was conducted as described elsewhere (Pagani et al., J. Biol. Chem., 275(28):21041-21047 (2000) and Ayala et al., FEBS Lett., 580(5):1339-1344 (2006)). In brief, Hela cells were co-transfected with 1 μg of minigene construct and 1 μg of GFP-fusion protein expression vector. […] Then, 2 μg of total RNA was used to synthesize cDNA using the SuperScript III First-Strand Synthesis System (Invitrogen). For the PCR, 2 μL of cDNA was used in a 20 μL of reaction according to the manufacturer's protocol for Taq PCR Core Kit (Qiagen). The amplification conditions consisted of an initial denaturation step at 94° C. for 3 minutes, followed by 30 cycles of 94° C. for 30 seconds, 62° C. for 60 seconds, and 72° C. for 90 seconds.

[2] = test system: differentiated M17 neuroblastoma cells; assay: Toxicity assay (LDH release, activated caspase-3 staining); format: cell-based; conditions: for activated caspase-3 staining: confocal microscopy; for LDH levels compared to cells expressing only GFP: medium collected 72 hours after transfection
Description: M17 neuroblastoma cells, seeded at 2.5×10^3 cells per well in 24-well plates, were grown in Neurobasal A/B27 medium containing Glutamax (Invitrogen) and 10 μM retinoic acid (Sigma) to induce differentiation. Seven days later, cells were transfected with 0.2 μg of expression vector for 72 hours. The medium was collected, and a LDH assay (Promega) was used to measure LDH levels as an indicator of toxicity. Then, cells were fixed, and immunofluorescent staining was done using an antibody against activated caspase-3 (1:250; Cell signaling) and the nuclear marker, bisbenzimide (Hoechst 33258).
as §1

[3] = co-treated with PSI 10 μM and caspase inhibitor 100 μM, 24 hours

CC[C@H](C)[C@H](NC(=O)OCc1ccccc1)C(=O)N[C@@H](CCC(=O)OC(C)(C)C)C(=O)N[C@@H](C)C(=O)N[C@H](C=O)CC(C)C [PSI] (Cbz-IE(OtBu)AL-aldehyde)
HSP70 levels (H4 neuroglioma cells; PSI 10 μM, 24 hours): increased
cleavage of endogenous cellular TDP-43 (H4 neuroglioma cells; PSI 10 μM, 24 hours): cleaved into ˜35 and ˜25 kD fragments
cleaved (active) caspase-3 levels (H4 neuroglioma cells; PSI 10 μM, 24 hours): marked increase
full length TDP-43 band (˜43 kD) (H4 neuroglioma cells; PSI 10 μM, 24 hours): reduction

COC(=O)C[C@H](NC(=O)[C@H](C)NC(=O)[C@@H](NC(=O)OCc1ccccc1)C(C)C)C(=O)CF [Z-VAD (OMe)-FMK] (Cbz-Val-Ala-Asp(OMe)-CH2F)
caspase-3 activity (TDP-43; PGRN RNAi-treated HeLa cells plus pan-caspase inhibitor): suppresses
production of ˜35 and ˜25 kD TDP-43 fragments (TDP-43; PGRN siRNA-treated cells, inhibitor 100 μM for additional 48 hours): inhibited
HSP70 levels (H4 neuroglioma cells; PSI plus caspase inhibitor): persisted
PSI-induced caspase-3 activity (H4 neuroglioma cells; [3]): suppressed
generation of proteolytic TDP-43 fragments (H4 neuroglioma cells; [3]): inhibited

COC(=O)Nc1nc2ccc(C(=O)c3cccs3)cc2[nH]1 [nocodazole, reference compound]
effect on inclusions formed by GFP-TDP-25 and GFP-TDP-35 (HEK293 cells; 1 μM for 24 hours after 6 hours of transfection): not disrupted

CN[C@@H]1C[C@H]2O[C@@](C)([C@@H]1OC)n1c3ccccc3c3c4c(c5c6ccccc6n2c5c31)C(=O)NC4 [staurosporine]
TDP-43 cellular localization (HeLa or H4 cells): increased cytoplasmic TDP-43 staining

GFP-TDP1-175: GFP-tagged C-terminal deletion mutant lacking the glycine rich region
binding to hnRNPA2 (hnRNPA2): failed to bind
binding to Flag-TDP-43 (Flag-TDP-43): bound strongly

GFP-TDP1-257: GFP-tagged C-terminal deletion product of TDP-43
binding to Flag-TDP-43 (Flag-TDP-43): bound strongly

GFP-TDP76-414: GFP-tagged second C-terminal fragment (76-414) that retains nuclear distribution
CFTR exon 9 exclusion (endogenous TDP-43 background) [1]: did not promote exon 9 exclusion
exon skipping activity in cells overexpressing Flag-TDP-43 [1]: markedly reduced
binding to hnRNPA2 (hnRNPA2): did indeed interact
binding to Flag-TDP-43 (Flag-TDP-43): only weakly interacted

GFP-TDP-43-caspase-resistant: GFP-tagged TDP-43 with aspartic acid at positions 89 and 219 substituted to glutamic acid
cellular distribution (HEK293 cells): localized almost exclusively to the nucleus
activated caspase-3 staining [2]: did not stain
LDH levels compared to cells expressing only GFP [2]: comparably increased

GFP-TDP-43: full-length wild-type TDP-43 tagged at the amino terminal with enhanced GFP
cellular distribution (HEK293 cells): localized almost exclusively to the nucleus
activated caspase-3 staining [2]: did not stain
LDH levels compared to cells expressing only GFP [2]: comparably increased
CFTR exon 9 exclusion (endogenous TDP-43 background) [1]: marked increase in exon exclusion
exon skipping activity in cells overexpressing Flag-TDP-43 [1]: promoted exon 9 exclusion
binding to hnRNPA2 (hnRNPA2): interact with hnRNPA2
binding to Flag-TDP-43 (Flag-TDP-43): bound strongly
